In ChEMBL document CHEMBL1201862, “PubChem BioAssay data set” (2004):
Active and inactive are the calls of the source.

Legend:
[1] = C. albicans growth with fluconazole, confirmation, fluorescence, retest (AID 2467); format: functional, cell-based
[2] = target: ATP-dependent molecular chaperone HSP82 (Candida albicans (strain WO-1) (Yeast), UniProt C4YTQ8); experiment: loss of DOC-induced GRE-beta-galactosidase reporter signal, dose response, Hsp90 inhibitor project, S. cerevisiae, luminescence (AID 2400); format: functional, cell-based;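 further: beta-galactosidase luminescence from glucocorticoid response element reporter as proxy for Hsp90 function; inhibitor potency where signal loss means Hsp90 inhibition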
Chain of ATP-dependent molecular chaperone HSP82 (C4YTQ8 whole entry): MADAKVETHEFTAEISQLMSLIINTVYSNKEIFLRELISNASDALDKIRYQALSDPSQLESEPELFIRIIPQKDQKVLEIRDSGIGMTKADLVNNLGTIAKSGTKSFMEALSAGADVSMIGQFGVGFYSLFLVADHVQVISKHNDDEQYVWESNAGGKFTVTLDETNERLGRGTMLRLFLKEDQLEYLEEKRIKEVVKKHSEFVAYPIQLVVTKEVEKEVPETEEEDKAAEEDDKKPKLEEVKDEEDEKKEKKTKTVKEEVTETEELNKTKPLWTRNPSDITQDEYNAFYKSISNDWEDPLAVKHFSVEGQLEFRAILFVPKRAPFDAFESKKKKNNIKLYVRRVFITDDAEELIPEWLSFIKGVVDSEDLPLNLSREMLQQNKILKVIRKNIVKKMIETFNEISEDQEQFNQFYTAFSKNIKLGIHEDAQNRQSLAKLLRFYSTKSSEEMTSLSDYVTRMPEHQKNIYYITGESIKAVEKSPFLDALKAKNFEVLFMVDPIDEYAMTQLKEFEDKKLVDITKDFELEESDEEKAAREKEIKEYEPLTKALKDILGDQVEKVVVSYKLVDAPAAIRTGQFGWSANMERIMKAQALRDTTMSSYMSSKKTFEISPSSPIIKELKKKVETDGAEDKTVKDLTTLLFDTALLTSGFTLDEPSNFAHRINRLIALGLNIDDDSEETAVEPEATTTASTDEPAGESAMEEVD

[3] = NIH-3T3 fibroblast cytotoxicity, dose response, cytotoxicity control, cell-based, fluorescence, Alamar Blue, secondary assay (AID 2327); format: functional;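 further: NIH-3T3 mouse fibroblasts cultured with fluconazole at 8 µg/mL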
[4] = target: T1, Serine/threonine-protein phosphatase (Candida dubliniensis (strain CD36 / CBS 7987 / NCPF 3949 / NRRLY-17841) (Yeast), UniProt B9W6M3); experiment: calcineurin pathway inhibitors in yeast reporter, dose response, S. cerevisiae, CDRE-lacZ, luminescence, secondary (AID 2388); format: functional, cell-based;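 further: yeast reporter cells carrying a calcineurin-responsive lacZ construct stimulated with calcium chloride; luminescent beta-galactosidase reporter signal in whole cells rather than isolated phosphatase activity; potency for inhibition where a drop in reporter signal means calcineurin blockade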
T1 sequence (B9W6M3 whole entry): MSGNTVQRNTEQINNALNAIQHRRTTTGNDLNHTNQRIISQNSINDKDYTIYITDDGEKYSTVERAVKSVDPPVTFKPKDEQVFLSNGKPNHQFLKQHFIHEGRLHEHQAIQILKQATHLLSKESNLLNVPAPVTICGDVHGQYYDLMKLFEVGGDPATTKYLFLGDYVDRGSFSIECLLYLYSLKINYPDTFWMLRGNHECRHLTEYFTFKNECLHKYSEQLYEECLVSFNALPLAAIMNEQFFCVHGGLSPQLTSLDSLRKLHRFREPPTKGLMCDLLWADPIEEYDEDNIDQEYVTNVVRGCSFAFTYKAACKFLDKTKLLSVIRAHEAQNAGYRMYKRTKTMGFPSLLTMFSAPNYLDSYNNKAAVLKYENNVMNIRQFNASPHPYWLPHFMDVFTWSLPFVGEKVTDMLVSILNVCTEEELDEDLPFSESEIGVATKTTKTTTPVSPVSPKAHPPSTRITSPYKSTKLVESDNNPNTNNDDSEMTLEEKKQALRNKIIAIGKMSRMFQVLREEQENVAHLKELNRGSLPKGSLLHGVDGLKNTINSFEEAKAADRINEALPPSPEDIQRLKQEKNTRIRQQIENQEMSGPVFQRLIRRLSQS

Escherichia coli [5] = experiment: microbe, parasite or virus in culture
Escherichia coli [6] = experiment: microbe, parasite or virus in culture; remark: listed apart in the source
Leucine aminopeptidase = target: T2, Leucine aminopeptidase (Plasmodium falciparum 3D7, UniProt Q8IL11); experiment: P. falciparum M17LAP inhibitors, primary screen, biochemical, fluorogenic H-Leu-NHMec substrate, 1536-well (AID 1619); format: functional
T2 sequence (Q8IL11 whole entry): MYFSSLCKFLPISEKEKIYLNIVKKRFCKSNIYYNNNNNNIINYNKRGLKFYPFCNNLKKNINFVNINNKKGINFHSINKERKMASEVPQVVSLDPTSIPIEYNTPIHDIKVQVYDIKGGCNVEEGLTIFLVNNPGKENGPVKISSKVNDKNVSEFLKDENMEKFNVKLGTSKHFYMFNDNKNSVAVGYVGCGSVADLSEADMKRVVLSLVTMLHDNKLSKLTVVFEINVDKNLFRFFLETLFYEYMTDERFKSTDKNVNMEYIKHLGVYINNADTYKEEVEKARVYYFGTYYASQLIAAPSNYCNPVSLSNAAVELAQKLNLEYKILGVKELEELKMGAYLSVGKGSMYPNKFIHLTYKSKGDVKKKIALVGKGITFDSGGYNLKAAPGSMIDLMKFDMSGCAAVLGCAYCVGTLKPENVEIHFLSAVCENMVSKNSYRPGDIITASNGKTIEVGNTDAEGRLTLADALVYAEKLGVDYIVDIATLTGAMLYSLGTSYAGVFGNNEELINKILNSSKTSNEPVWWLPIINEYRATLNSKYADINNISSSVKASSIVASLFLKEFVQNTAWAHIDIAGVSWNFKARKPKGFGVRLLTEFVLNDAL

[7] = target: T3, Microphthalmia-associated transcription factor (Homo sapiens, UniProt O75030); experiment: TRPM1 promoter luciferase signal decrease, dose response, MITF inhibitor project, cell-based, SK-MEL-5, cherry-picked, set 3 (AID 493073); format: functional
T3 sequence (O75030 whole entry): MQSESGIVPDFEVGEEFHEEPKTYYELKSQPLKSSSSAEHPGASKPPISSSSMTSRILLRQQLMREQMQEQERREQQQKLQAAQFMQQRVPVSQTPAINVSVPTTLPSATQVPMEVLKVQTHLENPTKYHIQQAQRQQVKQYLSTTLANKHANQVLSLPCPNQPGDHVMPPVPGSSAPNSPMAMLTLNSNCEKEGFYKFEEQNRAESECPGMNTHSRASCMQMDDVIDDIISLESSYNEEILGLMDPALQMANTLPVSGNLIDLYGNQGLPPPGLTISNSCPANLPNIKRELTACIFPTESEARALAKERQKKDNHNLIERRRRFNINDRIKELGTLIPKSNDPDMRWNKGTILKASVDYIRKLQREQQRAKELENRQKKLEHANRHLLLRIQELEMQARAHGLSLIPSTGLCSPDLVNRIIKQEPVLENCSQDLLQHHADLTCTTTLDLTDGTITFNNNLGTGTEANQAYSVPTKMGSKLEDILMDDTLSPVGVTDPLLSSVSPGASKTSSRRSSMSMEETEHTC

[8] = target: T4, Rac GTPase-activating protein 1 (Homo sapiens, UniProt Q9H0H5); experiment: MgcRacGAP GTPase-activating activity inhibitors, confirmation, biochemical, ADP Hunter fluorescence, primary and confirmatory (AID 624330); format: functional
T4 sequence (Q9H0H5 whole entry): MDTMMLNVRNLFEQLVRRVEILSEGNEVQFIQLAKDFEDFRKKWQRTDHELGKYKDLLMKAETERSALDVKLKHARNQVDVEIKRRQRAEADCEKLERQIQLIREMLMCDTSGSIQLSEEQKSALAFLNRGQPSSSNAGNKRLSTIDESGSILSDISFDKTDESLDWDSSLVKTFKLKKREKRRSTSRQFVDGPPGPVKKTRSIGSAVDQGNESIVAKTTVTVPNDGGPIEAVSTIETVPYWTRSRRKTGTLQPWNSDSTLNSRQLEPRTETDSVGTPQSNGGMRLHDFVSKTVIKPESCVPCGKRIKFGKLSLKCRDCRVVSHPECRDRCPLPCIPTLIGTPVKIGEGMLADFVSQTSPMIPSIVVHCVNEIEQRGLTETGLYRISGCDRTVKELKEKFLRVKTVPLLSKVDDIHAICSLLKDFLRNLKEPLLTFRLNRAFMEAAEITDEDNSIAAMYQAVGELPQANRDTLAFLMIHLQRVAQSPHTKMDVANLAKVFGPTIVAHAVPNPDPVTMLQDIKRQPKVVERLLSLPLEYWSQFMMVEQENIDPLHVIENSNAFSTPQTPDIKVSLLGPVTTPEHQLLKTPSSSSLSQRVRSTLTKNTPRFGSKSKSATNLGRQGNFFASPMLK

[9] = target: T5, Heat shock factor protein 1 (Mus musculus, UniProt P38532); experiment: inhibition of MG132-induced HSE-luciferase signal, confirmation, cell-based, NIH3T3, luminescence, dose retest (AID 2382); format: functional;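 further: NIH3T3 fibroblasts with HSF1-driven luciferase reporter stressed by proteasome inhibitor MG132; luminescence from HSF1-driven luciferase expression after 8 hours of MG132 stress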
T5 sequence (P38532 whole entry): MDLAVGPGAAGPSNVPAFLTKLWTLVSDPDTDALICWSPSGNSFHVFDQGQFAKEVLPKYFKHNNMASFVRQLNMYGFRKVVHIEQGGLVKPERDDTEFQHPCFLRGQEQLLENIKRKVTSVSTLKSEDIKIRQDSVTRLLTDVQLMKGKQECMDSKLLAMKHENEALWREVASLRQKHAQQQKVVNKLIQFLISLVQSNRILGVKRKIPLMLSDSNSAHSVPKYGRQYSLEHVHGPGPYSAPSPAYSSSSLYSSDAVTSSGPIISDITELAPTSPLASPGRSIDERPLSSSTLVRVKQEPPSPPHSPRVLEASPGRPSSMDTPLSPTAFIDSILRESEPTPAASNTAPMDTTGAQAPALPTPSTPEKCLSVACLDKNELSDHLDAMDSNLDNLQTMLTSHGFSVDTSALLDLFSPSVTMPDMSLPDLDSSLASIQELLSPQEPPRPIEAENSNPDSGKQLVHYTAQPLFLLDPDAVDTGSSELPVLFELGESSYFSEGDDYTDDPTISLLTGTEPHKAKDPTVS

[10] = target: T6, Luciferin 4-monooxygenase (Photuris pensylvanica, UniProt Q27757); experiment: firefly luciferase enzyme inhibitors, dose response, counter-screen for HSF-1 reporter inhibitor project, biochemical, Cell Titer Glo, luminescence, cherry-picks (AID 588847)
T6 sequence (Q27757 whole entry): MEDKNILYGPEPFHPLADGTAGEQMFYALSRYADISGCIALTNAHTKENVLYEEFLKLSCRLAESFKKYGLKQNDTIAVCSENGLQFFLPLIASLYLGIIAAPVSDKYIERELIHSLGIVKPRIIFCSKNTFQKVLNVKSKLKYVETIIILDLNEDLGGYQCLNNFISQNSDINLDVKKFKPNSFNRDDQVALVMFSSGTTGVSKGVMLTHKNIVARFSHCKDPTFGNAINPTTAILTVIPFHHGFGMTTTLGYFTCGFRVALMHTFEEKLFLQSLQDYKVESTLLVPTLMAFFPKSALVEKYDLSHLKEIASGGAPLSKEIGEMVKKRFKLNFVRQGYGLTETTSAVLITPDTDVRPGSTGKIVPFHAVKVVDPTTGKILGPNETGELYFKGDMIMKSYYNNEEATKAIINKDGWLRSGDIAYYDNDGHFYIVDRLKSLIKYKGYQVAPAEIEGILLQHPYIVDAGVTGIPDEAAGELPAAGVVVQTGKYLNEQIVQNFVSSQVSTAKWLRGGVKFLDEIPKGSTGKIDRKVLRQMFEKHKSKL

[11] = target: T7, Long-chain-fatty-acid--AMP ligase FadD28 (Mycobacterium tuberculosis, UniProt P9WQ59); experiment: Fluorescence polarization aasay to screen for inhibitors that compete for the binding of FadD28 to a bisubstrate Measured in Biochemical System Using Plate Reader - 2147-01_Inhibitor_Dose_CherryPick_Activity.; format: functional, Mycobacterium tuberculosis H37Rv
T7 sequence (P9WQ59 whole entry): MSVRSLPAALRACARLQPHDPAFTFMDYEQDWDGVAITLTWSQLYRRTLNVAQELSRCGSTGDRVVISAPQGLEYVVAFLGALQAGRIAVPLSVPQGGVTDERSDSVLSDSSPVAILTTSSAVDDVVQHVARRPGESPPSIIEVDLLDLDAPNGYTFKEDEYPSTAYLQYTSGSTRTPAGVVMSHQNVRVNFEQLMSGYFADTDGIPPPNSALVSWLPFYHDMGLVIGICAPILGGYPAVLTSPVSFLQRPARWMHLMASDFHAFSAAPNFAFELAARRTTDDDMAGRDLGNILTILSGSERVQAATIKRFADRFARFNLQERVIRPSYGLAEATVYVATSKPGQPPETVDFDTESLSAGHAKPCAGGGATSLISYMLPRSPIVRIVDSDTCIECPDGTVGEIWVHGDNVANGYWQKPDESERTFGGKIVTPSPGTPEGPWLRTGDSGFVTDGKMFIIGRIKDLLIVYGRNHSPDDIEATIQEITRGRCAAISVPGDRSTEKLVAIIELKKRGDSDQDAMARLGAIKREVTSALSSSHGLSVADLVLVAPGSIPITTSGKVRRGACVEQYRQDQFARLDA

For `N=C(Cc1ccccc1)NOC(=O)c1cccc2ccccc12`, the EC50 [1] was 0.717 µM (active), the EC50 [2] was 14 µM (active) and the EC50 [3] was 19.3 µM (active). The EC50 [4] was > 180 µM (inactive).

With `c1coc(CN2CNc3nc4ccccc4n3C2)c1` the AC50 (Escherichia coli [5]) was 101 µM (active) and the AC50 (Escherichia coli [6]) was 79.4 µM (active).

With `CC(C)(C)OC(=O)NCCCCCNC(=O)c1[nH]cnc1C(=O)NC1CCN(C(=O)OC(C)(C)C)CC1` the AC50 (Escherichia coli [5]) was 235 µM (active).

With `Cc1ccc(CNC(=O)COC(=O)c2cccnc2Cl)cc1` the AC50 (Escherichia coli [5]) was 73.1 µM (active) and the AC50 (Escherichia coli [6]) was 29.3 µM (active).

With `Cc1ccc(/C=N/Nc2ccc(C(=O)O)cc2)s1` the IC50 (Leucine aminopeptidase) was 20.4 µM (active), the AC50 [7] was 3.3 µM (active) and the IC50 [8] was 89.2 µM (active). For the same compound, the EC50 [9] was < 0.16 µM (active), the AC50 [10] was 0.721 µM (active) and the AC50 [11] was 37.8 µM (active).

With `CCC(=O)O[C@]1(C(=O)CCl)[C@@H](C)C[C@H]2[C@@H]3CCC4=CC(=O)C=C[C@]4(C)[C@@]3(F)[C@@H](O)C[C@@]21C` [CLOBETASOL PROPIONATE] the AC50 [10] was > 52 µM (inactive).
